Consider one compound from EPA's ToxValDB 9.5 (doi:10.2903/j.efsa.2015.4194).

Values after ≈ are worked out from the molar mass of the structure shown.

In one data set the test system is Apis mellifera. Conditions: acute, duration: 48 hours, mortality.
For a further data set, the system named is Bibionidae. Conditions: chronic/long-term; duration: 28 days.
In the next data set the test system is Canidae. The note with it: oral, Dog Other.
In the next data set the test system is Colinus virginianus. Conditions: oral.
Another data set deals with Daphnia magna. The note with it: chronic/long-term; duration: 21 days; reproduction.
Another data set relates to Lepomis macrochirus. Conditions: acute; duration: 96 hours; mortality.
Another data set has as its system Tagia sp. Conditions: acute; duration: 14 days; mortality.

The term NOAEL denotes the highest tested level that showed no adverse finding. For `CC1(c2ccc(Oc3ccccc3)cc2)OC(=O)N(Nc2ccccc2)C1=O` (centres undefined) [Famoxadone], the LD50 in the data set on Apis mellifera (dermal) was above 25 µg/piece; in the data set with Apis mellifera (oral, unspecified), above 63 µg/piece; in the data set with Colinus virginianus (acute, mortality), above 2250 mg/kg-day; with Rattus norvegicus (acute, mortality) it was above 5000 mg/kg. Moreover, the NOEC turned out to be 0.01 mg/L with Bibionidae; 5620 mg/kg-day in the data set on Colinus virginianus (short-term, diet); 0.0037 mg/L in the data set with Daphnia magna; 0.014 mg/L in the data set with Oncorhynchus mykiss (chronic/long-term, duration: 90 days, growth). Also, the NOAEL was 1.2 mg/kg-day with Canidae (chronic, duration: 1 years, ophthalmoscopic examination); 10 mg/kg-day with Canidae (subchronic, duration: 90 days, clinical signs); 11.3 mg/kg-day in the data set on Rattus norvegicus (developmental, development). The LC50 is 0.013 mg/L (≈ 0.0347 µM) in the data set with Lepomis macrochirus; 0.011 mg/L (≈ 0.0294 µM) in the data set on Oncorhynchus mykiss (acute, duration: 96 hours, mortality); 470 mg/kg with Tagia sp..
